For 21 molecules, T/C results are on record in PubChem BioAssay AID330 (DTP/NCI, 2004).

For this experiment, the system named is P388 leukemia ip, CD2F1 mice, survival T/C. Put plainly: NCI In Vivo Anticancer Drug Screen. Data for tumor model P388 Leukemia (intraperitoneal) in CD2F1 (CDF1) mice. The conditions noted are these: endpoint: median survival time, higher = longer survival. The gist of the method: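 Mice carrying the transplanted tumor received test compound or vehicle. Survival was recorded in each group, and the value is the treated-group measurement divided by that of the vehicle-treated control group.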

The mark [1] stands for this setting: dose: 50.0 mg/kg/injection, schedule: Q01DX005 (ip), vehicle: Klucel (hydroxypropylcellulose) (HPC).
[2] abbreviates: dose: 100.0 mg/kg/injection, schedule: Q01DX005 (ip), vehicle: Klucel (hydroxypropylcellulose) (HPC).
[3] abbreviates: dose: 50.0 mg/kg/injection, schedule: Q01DX005 (ip), vehicle: saline with Tween-80.
Setting [4] is: dose: 100.0 mg/kg/injection, schedule: Q01DX005 (ip), vehicle: saline with Tween-80.
Setting [5] is: dose: 200.0 mg/kg/injection, schedule: Q01DX005 (ip), vehicle: saline with Tween-80.
[6] abbreviates: dose: 15.0 mg/kg/injection, schedule: Q01DX005 (ip), vehicle: saline with Tween-80.
Where [7] appears, read: dose: 30.0 mg/kg/injection, schedule: Q01DX005 (ip), vehicle: saline with Tween-80.
Setting [8] is: dose: 60.0 mg/kg/injection, schedule: Q01DX005 (ip), vehicle: saline with Tween-80.
The mark [9] stands for this setting: dose: 120.0 mg/kg/injection, schedule: Q01DX005 (ip), vehicle: saline with Tween-80.
Setting [10] is: dose: 240.0 mg/kg/injection, schedule: Q01DX005 (ip), vehicle: saline with Tween-80.

Where “and” joins values, the source holds several entries; their conditions need not be identical. Equal values may be shown once. Toxic doses and inconclusive results are not listed.

Regarding `CC1=CCC2(C)C(=O)CC3(C)C(CCC4C5(C)CCC(=O)C(C)(C)C5CCC43C)C2C1C` (stereo not given), the T/C is 103 % of control and 121 % of control (dose: 1.75 mg/kg/injection, schedule: Q01DX009 (ip), vehicle: saline); 99 % of control and 114 % of control (dose: 3.5 mg/kg/injection, schedule: Q01DX009 (ip), vehicle: saline); 110 % of control and 118 % of control (dose: 7.0 mg/kg/injection, schedule: Q01DX009 (ip), vehicle: saline).
On to `COc1ccc(S(=O)(=O)NC(=O)c2ccccc2)cc1`, for which the T/C reads like this: (dose: 50.0 mg/kg/injection, schedule: Q04DX003 (ip), vehicle: saline) 103 % of control; (dose: 100.0 mg/kg/injection, schedule: Q04DX003 (ip), vehicle: saline) 106 % of control and 97 % of control; (dose: 200.0 mg/kg/injection, schedule: Q04DX003 (ip), vehicle: saline) 98 % of control and 104 % of control; (dose: 400.0 mg/kg/injection, schedule: Q04DX003 (ip), vehicle: saline) 101 % of control.
As for `Brc1ccc2c(ccc3nc4nnnn4nc32)c1`, the T/C runs as follows: (dose: 60.0 mg/kg/injection, schedule: Q01DX005 (ip), vehicle: Klucel (hydroxypropylcellulose) (HPC)) 94 % of control; (dose: 120.0 mg/kg/injection, schedule: Q01DX005 (ip), vehicle: Klucel (hydroxypropylcellulose) (HPC)) 90 % of control; (dose: 240.0 mg/kg/injection, schedule: Q01DX005 (ip), vehicle: Klucel (hydroxypropylcellulose) (HPC)) 86 % of control.
On to `CN(C)c1ccc(N=C2C=CC(=O)C=C2)cc1`, for which the T/C reads like this: (dose: 1.5 mg/kg/injection, schedule: Q01DX009 (ip), vehicle: saline with Tween-80) 101 % of control and 104 % of control and 106 % of control; (dose: 3.0 mg/kg/injection, schedule: Q01DX009 (ip), vehicle: saline with Tween-80) 105 % of control and 106 % of control (2×); (dose: 6.0 mg/kg/injection, schedule: Q01DX009 (ip), vehicle: saline with Tween-80) 113 % of control (2×) and 120 % of control; (dose: 12.0 mg/kg/injection, schedule: Q01DX009 (ip), vehicle: saline with Tween-80) 100 % of control and 103 % of control; (dose: 25.0 mg/kg/injection, schedule: Q01DX009 (ip), vehicle: saline with Tween-80) 102 % of control.
Regarding `COC(=O)/C=C/NC(=O)c1ccccc1C(=O)OC`, the T/C was 98 % of control (dose: 25.0 mg/kg/injection, schedule: Q01DX009 (ip), vehicle: suspension in saline); 100 % of control (dose: 50.0 mg/kg/injection, schedule: Q01DX009 (ip), vehicle: suspension in saline); 100 % of control (dose: 100.0 mg/kg/injection, schedule: Q01DX009 (ip), vehicle: suspension in saline); 100 % of control (dose: 200.0 mg/kg/injection, schedule: Q01DX009 (ip), vehicle: suspension in saline).
Turning to `O=CNC(Cc1ccccc1N(CCCl)CCCl)C(=O)O` (stereo not given), the T/C is 198 % of control (dose: 5.0 mg/kg/injection, schedule: Q04DX003 (ip), vehicle: other); 154 % of control (dose: 5.0 mg/kg/injection, schedule: Q04DX003 (ip), vehicle: water); 261 % of control (dose: 10.0 mg/kg/injection, schedule: Q04DX003 (ip), vehicle: other); 187 % of control (dose: 10.0 mg/kg/injection, schedule: Q04DX003 (ip), vehicle: water); 293 % of control (dose: 20.0 mg/kg/injection, schedule: Q04DX003 (ip), vehicle: other); 309 % of control (dose: 20.0 mg/kg/injection, schedule: Q04DX003 (ip), vehicle: water). Further, the T/C (dose: 40.0 mg/kg/injection, schedule: Q04DX003 (ip), vehicle: water) was 113 % of control.
With `CCCCN(CCCC)CCOc1c[nH]c(=O)[nH]c1=O`, the T/C is, setting by setting: under setting [1], 103 % of control; under setting [2], 106 % of control.
With `C=C(c1ccc2nc(NC(=O)OC)[nH]c2c1)c1cccs1`, the T/C was 108 % of control (dose: 25.0 mg/kg/injection, schedule: Q01DX005 (ip), vehicle: saline with Tween-80); 99 % of control under setting [3]; 98 % of control under setting [4]; 100 % of control under setting [5].
Consider `CCOC(=O)C1(CC)CC(OCC)OC1=O` (stereo not given), for which the T/C was 100 % of control under setting [1]; 93 % of control under setting [2]; 97 % of control (dose: 200.0 mg/kg/injection, schedule: Q01DX005 (ip), vehicle: Klucel (hydroxypropylcellulose) (HPC)).
In the case of `O=C(O)CC(OC(=O)CP(=O)(O)O)C(=O)O` (stereo not given), the T/C (dose: 100.0 mg/kg/injection, schedule: Q04DX002 (ip), vehicle: saline) is 105 % of control; the T/C (dose: 200.0 mg/kg/injection, schedule: Q04DX002 (ip), vehicle: saline) was 93 % of control; the T/C (dose: 400.0 mg/kg/injection, schedule: Q04DX002 (ip), vehicle: saline) was 102 % of control.
As to `O=C(Nc1c(Cl)cccc1Cl)Oc1cccc2cccnc12`, the T/C reads like this: under setting [6], 97 % of control; under setting [7], 107 % of control; under setting [8], 100 % of control and 92 % of control.
For `COC1C=CC23c4cc5c(cc4C(O)OC2CN(C)C3C1)OCO5` (stereo not given), the T/C (dose: 12.5 mg/kg/injection, schedule: Q01DX009 (ip), vehicle: saline) is 106 % of control; the T/C (dose: 25.0 mg/kg/injection, schedule: Q01DX009 (ip), vehicle: saline) was 107 % of control; the T/C (dose: 50.0 mg/kg/injection, schedule: Q01DX009 (ip), vehicle: saline) was 115 % of control; the T/C (dose: 100.0 mg/kg/injection, schedule: Q01DX009 (ip), vehicle: saline) is 94 % of control.
Turning to `CC(=O)Oc1c[nH]c(=O)[nH]c1=O`, the T/C by setting is: (dose: 25.0 mg/kg/injection, schedule: Q01DX009 (ip), vehicle: distilled water + Tween-80) 103 % of control and 97 % of control; (dose: 50.0 mg/kg/injection, schedule: Q01DX009 (ip), vehicle: distilled water + Tween-80) 100 % of control and 97 % of control; (dose: 100.0 mg/kg/injection, schedule: Q01DX009 (ip), vehicle: distilled water + Tween-80) 102 % of control and 103 % of control and 112 % of control; (dose: 200.0 mg/kg/injection, schedule: Q01DX009 (ip), vehicle: distilled water + Tween-80) 109 % of control and 114 % of control and 119 % of control; (dose: 400.0 mg/kg/injection, schedule: Q01DX009 (ip), vehicle: distilled water + Tween-80) 103 % of control and 123 % of control.
Turning to `O=c1c2[nH]c3ccccc3sc=2c(=O)n1-c1cccc(C(F)(F)F)c1`, the T/C by setting is: under setting [3], 104 % of control; under setting [4], 100 % of control; under setting [5], 101 % of control.
Regarding `CCC[CH2][Sn]([CH2]CCC)([O]C(=O)/C=C/c1ccccc1)[O]C(=O)/C=C/c1ccccc1`, the T/C was 87 % of control (dose: 1.56 mg/kg/injection, schedule: Q04DX003 (ip), vehicle: DMSO); 89 % of control (dose: 3.12 mg/kg/injection, schedule: Q04DX003 (ip), vehicle: DMSO); 89 % of control (dose: 6.25 mg/kg/injection, schedule: Q04DX003 (ip), vehicle: DMSO); 117 % of control (dose: 12.5 mg/kg/injection, schedule: Q04DX003 (ip), vehicle: saline with Tween-80).
In the case of `C=CCNc1ncnc2c1cnn2C`, the T/C is, setting by setting: (dose: 50.0 mg/kg/injection, schedule: Q04DX003 (ip), vehicle: saline with Tween-80) 104 % of control; (dose: 100.0 mg/kg/injection, schedule: Q04DX003 (ip), vehicle: saline with Tween-80) 104 % of control.
In the case of `COc1cc(C(c2cc3c(cc2O)OCO3)N2CCOCC2)ccc1O` (stereo not given), the T/C by setting is: under setting [8], 116 % of control; under setting [9], 106 % of control.
With `CN1CCC(O)(/C=C\C2(O)CCN(C)CC2)CC1`, the T/C (dose: 100.0 mg/kg/injection, schedule: Q01DX001 (ip), vehicle: saline) was 96 % of control; the T/C (dose: 200.0 mg/kg/injection, schedule: Q01DX001 (ip), vehicle: saline) is 89 % of control; the T/C (dose: 400.0 mg/kg/injection, schedule: Q01DX001 (ip), vehicle: saline) was 107 % of control.
With `CC(=O)OC1/C=C\CC/C=C\C1` (stereo not given), the T/C was 99 % of control under setting [8], 102 % of control under setting [9] and 103 % of control under setting [10].
Consider `CC(C)c1ccc(/C=C(/NC(=O)c2ccccc2)c2nc3ccccc3s2)cc1`, for which the T/C was 104 % of control under setting [8], 111 % of control under setting [9] and 118 % of control under setting [10].
`COc1ccc(-n2[nH]c3c(cnc4ccccc43)c2=O)cc1`: the T/C is, setting by setting: under setting [6], 87 % of control; under setting [7], 87 % of control; under setting [8], 90 % of control; under setting [9], 100 % of control; under setting [10], 94 % of control.
